Each structure is given as a SMILES string.

Consider 1 compound from US8956555B2, “Silylethynyl pentacene compounds and compositions and methods of making and using the same” (3M Innovative Properties Company, priority 2008, dated 2015).

This data set in a line: Solubility in organic solvent (toluene). In kind it is physicochemical.

`C=CC[Si](C#Cc1c2cc3ccccc3cc2c(C#C[Si](CC=C)(C(C)C)C(C)C)c2cc3ccccc3cc12)(C(C)C)C(C)C` [Compound I, 6,13-bis(allyldiisopropylsilylethynyl)pentacene]: the solubility in toluene entry is listed as “greater than 21 wt %”.
